Measured values: paper PMC8041284, “Tunable Methacrylamides for Covalent Ligand Directed Release Chemistry” (Journal of the American Chemical Society, 2021)

These compounds were tested against BTK (Homo sapiens, UniProt Q06187) (assay: biochemical). Details: read-out: BTK inhibition (%).
Sequence of BTK (Q06187 402-655 limits assumed): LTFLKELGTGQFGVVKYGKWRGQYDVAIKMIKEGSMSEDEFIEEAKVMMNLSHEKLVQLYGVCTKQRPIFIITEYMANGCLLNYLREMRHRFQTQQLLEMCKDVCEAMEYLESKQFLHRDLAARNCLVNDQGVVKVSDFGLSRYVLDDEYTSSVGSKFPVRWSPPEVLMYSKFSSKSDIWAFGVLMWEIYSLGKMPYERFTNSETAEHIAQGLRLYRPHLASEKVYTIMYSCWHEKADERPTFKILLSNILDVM
In the case of `O=C(O)CCCCCCCCCO` [PCM-0216560], the inhibition at 10 µM is reported as 14.7%. Work on `Cc1ccc2c(c1)[C@]13CCCC[C@@H]1[C@H](C2)N(C)CC3` [PCM-0216574] yielded an inhibition at 10 µM of 12.8%. `CC1=C[C@@H]2C(=O)[C@]3(C=C(C)[C@H](O)[C@@]3(O)[C@@H]1O)[C@H](C)C[C@@H]1[C@H]2C1(C)C` [PCM-0216603] was tested, and the inhibition at 10 µM was 3.9%. `C[C@@H]1CC[C@@]2(NC1)O[C@H]1C[C@H]3[C@@H]4CC=C5C[C@@H](O[C@@H]6O[C@H](CO)[C@@H](O[C@@H]7O[C@@H](C)[C@H](O)[C@@H](O)[C@H]7O)[C@H](O)[C@H]6O)CC[C@]5(C)[C@H]4CC[C@]3(C)[C@H]1[C@@H]2C` [PCM-0216606] gave an inhibition at 10 µM of -6.9%.

Same assay, conditions: read-out: BTK inhibition (%), 0.75 uM BTK, […] probe 3l, 15 min preincubation
`CO[C@]1(CC[C@@H](C)CO[C@@H]2O[C@H](CO)[C@@H](O)[C@H](O)[C@H]2O)O[C@H]2C[C@H]3[C@@H]4CC=C5C[C@@H](O[C@@H]6O[C@H](CO)[C@@H](O[C@@H]7O[C@@H](C)[C@H](O)[C@@H](O)[C@H]7O)[C@H](O)[C@H]6O[C@@H]6O[C@@H](C)[C@H](O)[C@@H](O)[C@H]6O)CC[C@]5(C)[C@H]4CC[C@]3(C)[C@H]2[C@@H]1C` [PCM-0216533] gave an inhibition at 10 µM of -6.2%. `COC(=O)C1=CO[C@@H](O[C@@H]2O[C@H](CO)[C@@H](O)[C@H](O)[C@H]2O)[C@H]2[C@@H]1C(=O)C[C@@H]2C` [PCM-0216534] gave an inhibition at 10 µM of 6.9%. Compound `C[C@@H]1CC[C@@]2(OC1)O[C@H]1C[C@H]3[C@@H]4CC=C5C[C@@H](O[C@@H]6O[C@H](CO)[C@@H](O)[C@H](O)[C@H]6O[C@@H]6O[C@@H](C)[C@H](O)[C@@H](O)[C@H]6O)CC[C@]5(C)[C@H]4CC[C@]3(C)[C@@]1(O)[C@@H]2C` [PCM-0216535] has an inhibition at 10 µM of 5.4%. `C[C@H]1O[C@@H](O[C@H]2CC[C@@]3(C)[C@@H](CC[C@]4(C)[C@@H]3C=CC3=C5CC(C)(C)CC[C@]5(CO)[C@H](O)C[C@]34C)[C@]2(C)CO)[C@H](O)[C@@H](O[C@@H]2O[C@H](CO)[C@@H](O)[C@H](O)[C@H]2O)[C@H]1O` [PCM-0216536] gave an inhibition at 10 µM of 5.4%. For `CC(=O)O[C@@H]1C[C@H](O)[C@@]23CO[C@@H](O)[C@]1(C)[C@@H]2C[C@@H](O)[C@]1(C)[C@@H]3C(=O)[C@H](OC(C)=O)[C@@]2(C)[C@H](c3ccoc3)C[C@H]3O[C@]321` [PCM-0216537], the inhibition at 10 µM was -15.4%. In the case of `C=C[C@H]1CN2CC[C@]3(C(=O)Nc4ccccc43)[C@@H]2C[C@@H]1/C(=C\OC)C(=O)OC` [PCM-0216538], the inhibition at 10 µM is reported as 6.2%. For `C[C@@H]1O[C@@H](O[C@H]2[C@H](O[C@H]3CC[C@@]4(C)[C@@H](CC[C@]5(C)[C@@H]4CC=C4[C@@H]6CC(C)(C)CC[C@]6(C(=O)O)CC[C@]45C)[C@]3(C)CO)OC[C@H](O[C@@H]3O[C@H](CO)[C@@H](O)[C@H](O)[C@H]3O)[C@@H]2O)[C@H](O)[C@H](O)[C@H]1O` [PCM-0216539], the inhibition at 10 µM was 52.5%. `C=C1C(=O)O[C@H]2[C@H]1CCC(C)=C1CC[C@@](C)(O)[C@@H]12` [PCM-0216540] was tested, and the inhibition at 10 µM was 23.9%. For `CC(C)=C1C/C=C(\C)CC/C=C(\C)CC1=O` [PCM-0216542], the inhibition at 10 µM was -4.6%. `OC[C@H]1O[C@@H](Oc2cc3c(O)cc(O)cc3[o+]c2-c2ccc(O)c(O)c2)[C@H](O)[C@@H](O)[C@@H]1O` [PCM-0216543] showed an inhibition at 10 µM of 23.9%. Compound `C=C1CCC[C@]2(C)C[C@]3(O)OC(=O)C(C)=C3C[C@@H]12` [PCM-0216544] has an inhibition at 10 µM of 6.9%. For `C=C1CCC[C@]2(C)C[C@@H]3OC(=O)C(C)=C3C[C@@H]12` [PCM-0216545], the inhibition at 10 µM was -38.6%. For `CC(C)=CCC[C@@](C)(O)[C@H]1CC[C@]2(C)[C@@H]1[C@H](O)C[C@@H]1[C@@]3(C)CC[C@H](O)C(C)(C)[C@@H]3[C@@H](O[C@@H]3O[C@H](CO)[C@@H](O)[C@H](O)[C@H]3O)C[C@]12C` [PCM-0216547], the inhibition at 10 µM was 12.4%. `COc1ccc(-c2cc(=O)c3c(O)cc(O[C@@H]4O[C@H](CO)[C@@H](O)[C@H](O)[C@H]4O[C@@H]4O[C@@H](C)[C@H](O)[C@@H](O)[C@H]4O)cc3o2)cc1O` [PCM-0216549] gave an inhibition at 10 µM of 1.5%. In the case of `O=C(/C=C/C=C/c1ccccc1)CCc1ccccc1` [PCM-0216550], the inhibition at 10 µM is reported as 4.6%. `C[Si](C)(C)CCOCn1ccc2c(-c3cn[nH]c3)ncnc21` [PCM-0216552] showed an inhibition at 10 µM of -40.9%. In the case of `COC(=O)CCC(=O)CN` [PCM-0216554], the inhibition at 10 µM is reported as -7.7%. With `Cc1nccn1CCC(C(N)=O)(c1ccccc1)c1ccccc1` [PCM-0216555] the inhibition at 10 µM was 1.5%. In the case of `O=C(O)c1cc(O)cc(Cl)c1` [PCM-0216556], the inhibition at 10 µM is reported as -10%. For `CC1=NCC[C@@H](C(=O)O)N1` [PCM-0216558], the inhibition at 10 µM was -13.6%. Compound `Cn1nnc(-c2ccc(-c3ccc(N4C[C@H](CO)OC4=O)cc3F)cn2)n1` [PCM-0216559] has an inhibition at 10 µM of -12.4%. For `CC(C)CCC[C@@H](C)[C@H]1CC[C@H]2C3=CC=C4C[C@@H](O)CC[C@]4(C)[C@H]3CC[C@]12C` [PCM-0216561], the inhibition at 10 µM was 18.5%. Work on `O=c1ccoc2cc(O)ccc12` [PCM-0216563] yielded an inhibition at 10 µM of -2.8%. `Cc1ccc(O)c(O)c1` [PCM-0216565] was tested, and the inhibition at 10 µM was 6.2%. `C[C@H]1CN(C[C@H](Cc2ccccc2)C(=O)NCC(=O)O)CC[C@@]1(C)c1cccc(O)c1` [PCM-0216566] showed an inhibition at 10 µM of -13.1%. `COc1cc2c(cc1OC)[C@H]1C[C@@H](OC(=O)[C@@H](N)C(C)C)[C@H](CC(C)C)CN1CC2` [PCM-0216567] gave an inhibition at 10 µM of -27%. With `CO[C@H]1/C=C/O[C@@]2(C)Oc3c(C)c(O)c4c(O)c(cc(O)c4c3C2=O)NC(=O)/C(C)=C\C=C\[C@H](C)[C@H](O)[C@@H](C)[C@@H](O)[C@@H](C)[C@H](OC(C)=O)[C@@H]1C` [PCM-0216568] the inhibition at 10 µM was 22.4%. `CCOC(=O)C1=C(C)NC(C)=C(C(=O)OCC)C1` [PCM-0216569] was tested, and the inhibition at 10 µM was 10.8%. Work on `CC1(C)CC[C@]2(C)CC[C@]3(C)C(=CC[C@@H]4[C@@]5(C)CC[C@@H](O)[C@](C)(C(=O)O)[C@@H]5CC[C@]43C)[C@@H]2C1` [PCM-0216570] yielded an inhibition at 10 µM of -6.9%. `CCOC(=O)/C=C/c1ccc(O)c(O)c1` [PCM-0216571] gave an inhibition at 10 µM of 17.8%. `C[C@@H]1CC[C@]2(C(=O)O[C@@H]3O[C@H](CO)[C@@H](O)[C@H](O)[C@H]3O)CC[C@]3(C)C(=CC[C@@H]4[C@@]5(C)CC[C@H](O)[C@@](C)(CO)[C@@H]5CC[C@]43C)[C@@H]2[C@]1(C)O` [PCM-0216572] was tested, and the inhibition at 10 µM was -2.3%. Compound `CC(C)=CCC/C(C)=C/CC/C(C)=C/CCC(=O)OC/C=C(\C)CCC=C(C)C` [PCM-0216575] has an inhibition at 10 µM of 7.7%. `C[C@H](O)[C@H](O)c1cnc2nc(N)[nH]c(=O)c2n1` [PCM-0216576] gave an inhibition at 10 µM of 6.8%. Work on `CCCCC[C@](C)(O)/C=C/[C@@H]1[C@@H](C/C=C\CCCC(=O)O)[C@@H](O)C[C@H]1O` [PCM-0216577] yielded an inhibition at 10 µM of -3.9%. With `CCCCc1ccc(O)cc1O` [PCM-0216578] the inhibition at 10 µM was -8.5%. With `CC(C)=CCOc1ccc(/C=C/C(=O)c2ccc(OCC=C(C)C)cc2OCC(=O)O)cc1` [PCM-0216579] the inhibition at 10 µM was 16.2%. With `OCC1(O)OC[C@@H](O)[C@H](O)[C@@H]1O` (stereo partly shown) [PCM-0216581] the inhibition at 10 µM was 6.9%. For `COc1ccc(/C=C/C(=O)c2c(O)cc(OC)cc2OC)cc1` [PCM-0216582], the inhibition at 10 µM was 11.6%. `CN(C)c1ccc2nc3c(C(=O)O)cc(=O)c(O)c-3oc2c1` [PCM-0216583] showed an inhibition at 10 µM of 88%. `Nc1[nH]c(=O)ncc1Br` [PCM-0216584] was tested, and the inhibition at 10 µM was 8.5%. `Nc1ccc(Oc2ccc(-c3ccc(Oc4ccc(N)cc4)cc3)cc2)cc1` [PCM-0216586] was tested, and the inhibition at 10 µM was -7.7%. `NC(=O)Cc1c[nH]c2ccccc12` [PCM-0216587] was tested, and the inhibition at 10 µM was 3.1%. `CC(=O)OC(CC(=O)O)C[N+](C)(C)C` (stereo not shown) [PCM-0216588] gave an inhibition at 10 µM of -18.5%. Compound `CCCCCCCCCCCCCC(=O)O` [PCM-0216589] has an inhibition at 10 µM of 1.7%. Compound `CC(OC(=O)OC1CCCCC1)OC(=O)C1=C(CSc2nnnn2CCN(C)C)CS[C@@H]2[C@H](NC(=O)Cc3csc(N)n3)C(=O)N12` (stereo partly shown) [PCM-0216590] has an inhibition at 10 µM of 4.6%. `CO/N=C(\C(=O)N[C@@H]1C(=O)N2C(C(=O)[O-])=C(C[n+]3ccn4ncccc43)CS[C@H]12)c1nsc(N)n1` [PCM-0216591] gave an inhibition at 10 µM of 10.8%. `CCN(CC)c1ccc2c(-c3ccccc3C(=O)O)c3ccc(=[N+](CC)CC)cc-3oc2c1` [PCM-0216592] was tested, and the inhibition at 10 µM was 85.7%. For `CC[C@@H]1CN2CC[C@@]3(C(=O)Nc4ccccc43)[C@@H]2C[C@@H]1/C(=C\OC)C(=O)OC` [PCM-0216594], the inhibition at 10 µM was -15.4%. `CCC(C)C(=O)O[C@@H]1[C@@H](OC(C)=O)[C@]2(C)[C@H](C(C)=O)CC[C@@]23O[C@]32CC[C@H]3C[C@@H](O[C@H]4C[C@@H](OC)[C@H](O[C@@H]5O[C@H](C)[C@@H](O)[C@@H](OC)[C@H]5O)[C@@H](C)O4)CC[C@]3(C)[C@@H]12` (stereo partly shown) [PCM-0216595] was tested, and the inhibition at 10 µM was -11.6%. In the case of `C[C@H]1[C@H](C)CC[C@]2(C(=O)O)CC[C@]3(C)C(=CC[C@@H]4[C@@]5(C)C[C@@H](O)[C@H](O)C(C)(C)[C@@H]5CC[C@]43C)[C@H]12` [PCM-0216596], the inhibition at 10 µM is reported as 6.2%. Work on `O=C1C(c2[nH]c3ccc(S(=O)(=O)O)cc3c2O)=Nc2ccc(S(=O)(=O)O)cc21` [PCM-0216597] yielded an inhibition at 10 µM of 23.9%. With `CC(=O)O[C@@H]1CC[C@@]2(C)[C@@H](CC[C@]3(C)[C@@H]2C(=O)C=C2[C@@H]4[C@@H](C)[C@H](C)CC[C@]4(C)CC[C@]23C)[C@@]1(C)C(=O)O` [PCM-0216599] the inhibition at 10 µM was 88%. `CO[C@H]1[C@@H](O)[C@H](O[C@@H]2[C@@H](C)O[C@@H](O[C@H]3CC[C@@]4(C)[C@@H](CC[C@@]56O[C@@]57CC[C@@H](C(C)=O)[C@@]7(C)[C@H](OC(C)=O)[C@@H](OC(=O)c5ccccc5)[C@H]46)C3)C[C@H]2OC)O[C@H](C)[C@H]1O` [PCM-0216600] was tested, and the inhibition at 10 µM was -12.4%. `O=c1cc(-c2ccc(O)cc2)oc2cc(O)c([C@@H]3O[C@H](CO)[C@@H](O)[C@H](O)[C@H]3O)c(O)c12` [PCM-0216601] was tested, and the inhibition at 10 µM was 11.6%. `COc1cc(O)c2c(c1)oc(=O)c1c3cc(O)c(O)cc3oc21` [PCM-0216602] showed an inhibition at 10 µM of 47.9%. Work on `C=C(C)[C@@H]1CC[C@]2(C(=O)O)CC[C@]3(C)[C@H](CC[C@@H]4[C@@]5(C)CC[C@H](O)[C@@](C)(CO)[C@@H]5CC[C@]43C)[C@@H]12` [PCM-0216604] yielded an inhibition at 10 µM of 26.3%. Work on `C=C(C)[C@@H]1CC[C@]2(C(=O)O)CC[C@]3(C)[C@H](CC[C@@H]4[C@@]5(C)CC[C@H](OC(=O)CC(C)(C)C(=O)O)C(C)(C)[C@@H]5CC[C@]43C)[C@@H]12` [PCM-0216605] yielded an inhibition at 10 µM of 17.8%.
